ChEMBL document CHEMBL1153751, “Biologically active tetranorditerpenoids from the fungus Sclerotinia homoeocarpa causal agent of dollar spot in turfgrass” (J Nat Prod, 2009)
≈ marks a conversion by molar mass, not a printed value. Calls of active or inactive are those of the source. No cut-off for these calls is given here.

Assays:
Vero [1] = test: Cytotoxicity against african green monkey Vero cells at 4760 ng/ml after 48 hrs by neutral red dye staining; assay type: cell-based; conditions: Chlorocebus sabaeus
SK-MEL [2] = test: Cytotoxicity against human SK-MEL cells after 48 hrs by neutral red dye staining; assay type: functional, cell-based
KB [3] = test: Cytotoxicity against human KB cells at 10 ug/ml after 48 hrs by neutral red dye staining; assay type: functional, cell-based
BT-549 [4] = test: Cytotoxicity against human BT549 cells after 48 hrs by neutral red dye staining; assay type: functional, cell-based; conditions: BT-549, 48 h
SK-OV-3 [5] = test: Cytotoxicity against human SKOV3 cells at 10 ug/ml after 48 hrs by neutral red dye staining; assay type: functional, cell-based
[6] = Cytotoxicity against pig LLC-PK11 cells after 48 hrs by neutral red dye staining; assay type: functional, cell-based; conditions: Sus scrofa, LLC-PK11, 48 h
Lactuca sativa [7] = test: Phytotoxicity against Lactuca sativa at 1 mg/ml; assay type: functional, organism-based
Lactuca sativa [8] = test: Phytotoxicity against Lactuca sativa at 0.1 mg/ml; assay type: functional, organism-based
Lactuca sativa [9] = test: Phytotoxicity against Lactuca sativa at 0.001 mg/ml; assay type: functional, organism-based
Agrostis stolonifera [10] = test: Phytotoxicity against Agrostis stolonifera at 1 mg/ml; assay type: functional, organism-based
Agrostis stolonifera [11] = test: Phytotoxicity against Agrostis stolonifera at 0.1 mg/ml; assay type: functional, organism-based
Lemna aequinoctialis = test: Phytotoxicity against Lemna paucicostata after 7 days; assay type: functional, organism-based; conditions: 168 h, read-out: I50
Plasmodium falciparum [12] = test: microbe, parasite or virus in culture; conditions: D6, 72 h
Plasmodium falciparum [13] = test: microbe, parasite or virus in culture; conditions: W2, 72 h
Vero [14] = test: Cytotoxicity against african green monkey Vero cells after 48 hrs by neutral red dye staining; assay type: cell-based; conditions: Chlorocebus sabaeus
KB [15] = test: Cytotoxicity against human KB cells after 48 hrs by neutral red dye staining; assay type: functional, cell-based
SK-OV-3 [16] = test: Cytotoxicity against human SKOV3 cells after 48 hrs by neutral red dye staining; assay type: functional, cell-based; conditions: SK-OV-3, 48 h
Lactuca sativa [17] = test: Phytotoxicity against Lactuca sativa at 0.01 mg/ml; assay type: functional, organism-based
Agrostis stolonifera [18] = test: Phytotoxicity against Agrostis stolonifera at 0.001 mg/ml; assay type: functional, organism-based
Plasmodium falciparum [19] = test: Antiplasmodial activity against chloroquine-sensitive Plasmodium falciparum D6 assessed as LDH activity at 4760 ng/ml after 72 hrs by malstat reagent method; assay type: functional, organism-based
Plasmodium falciparum [20] = test: Antiplasmodial activity against chloroquine-resistant Plasmodium falciparum W2 assessed as LDH activity at 4760 ng/ml after 72 hrs by malstat reagent method; assay type: functional, organism-based
SK-MEL [21] = test: Cytotoxicity against human SK-MEL cells at 10 ug/ml after 48 hrs by neutral red dye staining; assay type: functional, cell-based
BT-549 [22] = test: Cytotoxicity against human BT549 cells at 10 ug/ml after 48 hrs by neutral red dye staining; assay type: functional, cell-based
[23] = Cytotoxicity against pig LLC-PK11 cells at 10 ug/ml after 48 hrs by neutral red dye staining; assay type: functional, cell-based, Sus scrofa
Agrostis stolonifera [24] = test: Phytotoxicity against Agrostis stolonifera at 0.01 mg/ml; assay type: functional, organism-based

| SMILES | inhibition (INH) (Vero [1]) | IC50 (SK-MEL [2]) | IC50 (BT-549 [4]) | IC50 [6] | Activity (Lactuca sativa [7]) | Activity (Lactuca sativa [8]) | Activity (Lactuca sativa [9]) | Activity (Agrostis stolonifera [10]) | Activity (Agrostis stolonifera [11]) | IC50 (Lemna aequinoctialis) | IC50 (Plasmodium falciparum [12]) | IC50 (Plasmodium falciparum [13]) | IC50 (Vero [14]) | IC50 (KB [15]) | IC50 (SK-OV-3 [16]) | Activity (Agrostis stolonifera [18]) | other results |
| --- | --- | --- | --- | --- | --- | --- | --- | --- | --- | --- | --- | --- | --- | --- | --- | --- | --- |
| C[C@]12C=CC[C@]3(C)C(=O)O[C@@H](C13)[C@H]1O[C@]13COC(=O)C=C32 (some centres not stated) | Not Active | 2.8 µg/mL (≈ 9.71 µM) | > 10 µg/mL | > 10 µg/mL | Active | Active | inactive | Active | Active | 650 nM | 2.3 µg/mL (≈ 7.98 µM) | 2.3 µg/mL (≈ 7.98 µM) |  |  |  |  | inhibition (KB [3]): inactive; inhibition (SK-OV-3 [5]): inactive |
| C[C@@]12C=C[C@H](O)[C@]3(C)C(=O)O[C@H](C=C4COC(=O)C=C41)C23 (some centres not stated) |  | 0.12 µg/mL (≈ 0.416 µM) | 1.2 µg/mL (≈ 4.16 µM) | 1.1 µg/mL (≈ 3.82 µM) | Active | Active | inactive | Active | Active | 790 nM |  | 0.032 µg/mL (≈ 0.111 µM) | 0.95 µg/mL (≈ 3.3 µM) | 0.6 µg/mL (≈ 2.08 µM) | 1.1 µg/mL (≈ 3.82 µM) | inactive | Activity (Lactuca sativa [17]): Active |
| C[C@@H]1CC[C@H]2[C@@H](C)C(=O)O[C@@H]3O[C@@]4(C)CC[C@@H]1[C@]32OO4 [ARTEMISININ] | Not Active |  |  |  |  |  |  |  |  |  | 0.0047 µg/mL (≈ 0.0166 µM) | 0.0038 µg/mL (≈ 0.0135 µM) |  |  |  |  |  |
| C[C@@]12C=CC[C@]3(C)C(=O)O[C@H](C=C4COC(=O)C=C41)C23 (some centres not stated) |  | 2.3 µg/mL (≈ 8.45 µM) | 9.6 µg/mL (≈ 35.3 µM) | 10 µg/mL (≈ 36.7 µM) | Active | Active | inactive | Active | Active | 730 nM |  | 0.13 µg/mL (≈ 0.477 µM) | 3 µg/mL (≈ 11 µM) | 4.3 µg/mL (≈ 15.8 µM) | 6 µg/mL (≈ 22 µM) | inactive |  |
| C[C@@]12CC[C@@H](O)[C@]3(C)C4=CC(=O)OCC4=C[C@@H](OC1=O)C23 (some centres not stated) |  | 3.3 µg/mL (≈ 11.4 µM) | > 10 µg/mL | > 10 µg/mL | Active | Active | inactive | Active | Active | 547000 nM |  |  | 4.76 µg/mL (≈ 16.4 µM) | > 10 µg/mL | > 10 µg/mL | inactive |  |
| C[C@@]12CC[C@@H](O)[C@]3(C)C(=O)O[C@H](C=C4COC(=O)C=C41)C23 (some centres not stated) | Not Active |  |  |  | Active |  | inactive | Active |  |  |  |  |  |  |  | inactive | inhibition (Plasmodium falciparum [19]): inactive; inhibition (Plasmodium falciparum [20]): inactive; inhibition (SK-MEL [21]): inactive; inhibition (KB [3]): inactive; inhibition (BT-549 [22]): inactive; inhibition (SK-OV-3 [5]): inactive; Cytotoxicity at 10 ug/ml [23]: Not Active; Activity (Lactuca sativa [17]): inactive; Activity (Agrostis stolonifera [24]): inactive |
| C[C@]12CCC[C@](C)(C(=O)O)[C@@H]1C=C[C@]1(O)COC(=O)C[C@H]21 [OIDIOLACTONE E] |  | 0.72 µg/mL (≈ 2.45 µM) | 9 µg/mL (≈ 30.6 µM) | 4.8 µg/mL (≈ 16.3 µM) | Active |  | inactive | Active |  |  | 0.25 µg/mL (≈ 0.849 µM) | 0.19 µg/mL (≈ 0.645 µM) | 1.7 µg/mL (≈ 5.78 µM) | 4.5 µg/mL (≈ 15.3 µM) | 6.3 µg/mL (≈ 21.4 µM) | inactive |  |
| CCN(CC)CCCC(C)Nc1ccnc2cc(Cl)ccc12 (configuration not stated) [CHLOROQUINE] | Not Active |  |  |  |  |  |  |  |  |  |  |  |  |  |  |  |  |
| C[C@@]12C[C@@H](O)C[C@]3(C)C4=CC(=O)OCC4=C[C@@H](OC1=O)C23 (some centres not stated) |  | 0.41 µg/mL (≈ 1.41 µM) | 4.7 µg/mL (≈ 16.2 µM) | 1.2 µg/mL (≈ 4.13 µM) | Active | Active |  | Active | Active | 9090 nM |  |  | 1 µg/mL (≈ 3.44 µM) | 2.1 µg/mL (≈ 7.23 µM) | 3.2 µg/mL (≈ 11 µM) |  |  |
| C[C@@]12CC[C@@H](O)[C@]3(C)C4=CC(=O)OC[C@]45O[C@@H]5[C@@H](OC1=O)C23 (some centres not stated) | Not Active | 10 µg/mL (≈ 32.6 µM) |  |  | Active | Active |  | Active | Active | 6420 nM |  |  |  |  |  | inactive | inhibition (Plasmodium falciparum [19]): inactive; inhibition (Plasmodium falciparum [20]): inactive; inhibition (KB [3]): inactive; inhibition (BT-549 [22]): inactive; inhibition (SK-OV-3 [5]): inactive; Cytotoxicity at 10 ug/ml [23]: Not Active |
| C[C@]12CC[C@@H](O)[C@]3(C)C(=O)O[C@@H](C13)[C@H]1O[C@]13COC(=O)C=C32 (some centres not stated) | Not Active |  |  |  | Active |  | inactive | Active |  |  |  |  |  |  |  | inactive | inhibition (Plasmodium falciparum [19]): inactive; inhibition (Plasmodium falciparum [20]): inactive; inhibition (SK-MEL [21]): inactive; inhibition (KB [3]): inactive; inhibition (BT-549 [22]): inactive; inhibition (SK-OV-3 [5]): inactive; Cytotoxicity at 10 ug/ml [23]: Not Active; Activity (Lactuca sativa [17]): inactive; Activity (Agrostis stolonifera [24]): inactive |
| C[C@@]12C[C@@H](O)C[C@]3(C)C4=CC(=O)OC[C@]45O[C@@H]5[C@@H](OC1=O)C23 (some centres not stated) |  | 1.1 µg/mL (≈ 3.59 µM) | 10 µg/mL (≈ 32.6 µM) | 4.2 µg/mL (≈ 13.7 µM) | Active | Active | inactive | Active | Active | 3320 nM | 0.74 µg/mL (≈ 2.42 µM) |  | 3.3 µg/mL (≈ 10.8 µM) | 6.8 µg/mL (≈ 22.2 µM) | 10 µg/mL (≈ 32.6 µM) | inactive |  |
| C[C@@]12CCC[C@]3(C)C4=CC(=O)OCC4=C[C@@H](OC1=O)C23 (some centres not stated) |  | 1.1 µg/mL (≈ 4.01 µM) | > 10 µg/mL | 5.4 µg/mL (≈ 19.7 µM) | Active | Active | inactive | Active | Active | 950 nM | 0.3 µg/mL (≈ 1.09 µM) |  | 3.7 µg/mL (≈ 13.5 µM) | 4.2 µg/mL (≈ 15.3 µM) | > 10 µg/mL | inactive |  |
| C[C@]12C=C[C@H](O)[C@]3(C)C(=O)O[C@@H](C13)[C@H]1O[C@]13COC(=O)C=C32 (some centres not stated) |  | 0.58 µg/mL (≈ 1.91 µM) | 4.8 µg/mL (≈ 15.8 µM) | 2.8 µg/mL (≈ 9.2 µM) | Active | Active |  | Active | Active | 390 nM | 0.75 µg/mL (≈ 2.46 µM) | 0.6 µg/mL (≈ 1.97 µM) | 1.5 µg/mL (≈ 4.93 µM) | 4.4 µg/mL (≈ 14.5 µM) | 8 µg/mL (≈ 26.3 µM) |  | Activity (Lactuca sativa [17]): Active |
